In patent US20130065964A1, “PERITONEAL DIALYSIS SOLUTION” (UNIVERSIDAD DE CASTILLA LA MANCHA, priority 2010, published 2013):

Key:
Assay type in all cases: cell-based
caspase-3 = experiment: Caspase-3 activity (Z-DEVD-AFC fluorescence); conditions: rat PMCs, D-glucose 50 mM, 24 hours, aliskiren 10-100 μM, FIG. 7
Experimental: The cells were incubated in D-glucose at 50 mM for 24 hours in the presence or absence of aliskiren (10-100 μM), and caspase-3 activity was measured as described in Material and Methods. The data is expressed as mean±SEM, n=3. * p<0.05 compared to the control (C). # p<0.05 compared to untreated cells (control). # p<0.05, compared to cells treated with D-glucose in the presence of carrier (0).
Rat peritoneal mesothelial cells were isolated by enzymatic digestion in accordance with protocols described in Hjelle J T, Golinska B T, Waters D C, et al. Perit Dial Int 1989; 9: 341-7. Briefly, female rats weighing 200-400 g of the Spragle-Dawley strain were sacrificed pursuant to Royal Decree 1201/2005, of 10 Oct., on protection of animals used for experimental and other scientific purposes. […]
In order to determine caspase-3 activity (Posadas I, Vellecco V, Santos P, et al. Br J Pharmacol 2007; 150: 577-85), the rat mesothelial cells were seeded on 6-well plates until reaching a confluence of 80%. […] After incubation, the samples were centrifuged at 13,000 rpm for 15 minutes at 4° C. and the protein concentration in the supernatants was determined using the Bradford method, following the standard protocol. […] Fluorescence emission was determined on a spectrofluorimeter (Tecan, Austria) at an excitation wavelength of 400 nm and an emission wavelength of 505 nm.

p38 MAPK = experiment: Phosphorylation of p38 MAPK by Western blot; conditions: rat PMCs, D-glucose 50 mM, FIG. 8
Excerpt: Densitometric analysis of the phosphor-p38 levels normalized with respect to the controls (C). The data is expressed as mean±SEM, n=3. * p<0.05 compared to untreated cells (control). # p<0.05, compared to cells treated with D-glucose in the presence of carrier (0).
(§1) Rat peritoneal mesothelial cells were isolated by enzymatic digestion in accordance with protocols described in Hjelle J T, Golinska B T, Waters D C, et al. Perit Dial Int 1989; 9: 341-7. Briefly, female rats weighing 200-400 g of the Spragle-Dawley strain were sacrificed pursuant to Royal Decree 1201/2005, of 10 Oct., on protection of animals used for experimental and other scientific purposes. The abdominal cavity was quickly opened and the abdominal wall (peritoneum and smooth muscle) extracted under sterile conditions. […]
In order to obtain the total protein of the cell cultures, the culture medium was collected and replaced with PBS. […] The protein content of the cell lysates was determined using the Bradford method, following the standard protocol (Vorobiov M, Malki M, Shnaider A, et al. Perit Dial Int 2008; 28: 648-54). A quantity of 20 μg of protein/well of each sample was loaded onto 10% polyacrylamide gels. […] Band intensity was quantified by grey levels using an appropriate image analysis system (Quantity One).

[1] = tested on: rat peritoneal mesothelial cells; experiment: Cytotoxicity study, LDH release; conditions: rat PMCs, 72 hours, FIG. 5
Experimental: The cells were treated with carrier or aliskiren for 72 hours and cell viability was evaluated quantifying the LDH released into the culture medium. The data is expressed as mean±SEM, n=12. * p<0.05 compared to the control (carrier).
as §1
To this end, the cells were seeded on 24-well plates and exposed to the peritoneal dialysis solutions object of the present invention to study their toxicity. The toxic effects were evaluated measuring cell membrane rupture and the consequent release of LDH to the supernatant through the CytoTox96® kit (Promega). […] Absorbance of the lysate and cell supernatant was obtained using a microplate spectrophotometer at a wavelength of 490 nm, following the manufacturer's instructions.

COCCCOc1cc(C[C@@H](C[C@H](N)[C@@H](O)C[C@H](C(=O)NCC(C)(C)C(N)=O)C(C)C)C(C)C)ccc1OC [aliskiren]
activation of caspase (caspase-3): prevented | phosphorylation of protein p38 (p38 MAPK): prevented | concentration at which toxicity with respect to mesothelial cells is shown (LDH released) [1]: ≥ 1000 µM
